Measurements reported in PubChem BioAssay AID1259407 (Chemical Carcinogenesis Research Information System (CCRIS), 2018).
The source made the active and inactive calls. No rule for the calls is given here.

System: CCRIS mutagenicity, Ames/micronucleus/aberration tests
Assay: CCRIS mutagenicity studies
[1] = Test System: AMES SALMONELLA TYPHIMURIUM, Strain/Indicator: TA98, Metabolic Activation: NONE, Method: PREINCUBATION
[2] = Test System: AMES SALMONELLA TYPHIMURIUM, Strain/Indicator: TA100, Metabolic Activation: NONE, Method: PREINCUBATION
[3] = Test System: AMES SALMONELLA TYPHIMURIUM, Strain/Indicator: TA1535, Metabolic Activation: NONE, Method: PREINCUBATION
[4] = Test System: AMES SALMONELLA TYPHIMURIUM, Strain/Indicator: TA1537, Metabolic Activation: NONE, Method: PREINCUBATION
[5] = Test System: AMES SALMONELLA TYPHIMURIUM, Strain/Indicator: TA98, Metabolic Activation: NONE, Method: STANDARD PLATE
[6] = Test System: AMES SALMONELLA TYPHIMURIUM, Strain/Indicator: TA98, Metabolic Activation: RAT, LIVER, S-9, AROCLOR 1254, Method: STANDARD PLATE

## Cc1ccc(OP(=O)(Oc2ccc(C)cc2C)Oc2ccc(C)cc2C)c(C)c1
Test System: AMES SALMONELLA TYPHIMURIUM, Strain/Indicator: TA98, Metabolic Activation: HAMSTER, LIVER, S-9, AROCLOR 1254 (10%), Method: PREINCUBATION
  mutagenic call: inactive; negative
[1]
  mutagenic call: inactive; negative
Test System: AMES SALMONELLA TYPHIMURIUM, Strain/Indicator: TA98, Metabolic Activation: RAT, LIVER, S-9, AROCLOR 1254 (10%), Method: PREINCUBATION
  mutagenic call: inactive; negative
Test System: AMES SALMONELLA TYPHIMURIUM, Strain/Indicator: TA100, Metabolic Activation: HAMSTER, LIVER, S-9, AROCLOR 1254 (10%), Method: PREINCUBATION
  mutagenic call: inactive; negative
[2]
  mutagenic call: inactive; negative
Test System: AMES SALMONELLA TYPHIMURIUM, Strain/Indicator: TA100, Metabolic Activation: RAT, LIVER, S-9, AROCLOR 1254 (10%), Method: PREINCUBATION
  mutagenic call: inactive; negative
Test System: AMES SALMONELLA TYPHIMURIUM, Strain/Indicator: TA1535, Metabolic Activation: HAMSTER, LIVER, S-9, AROCLOR 1254 (10%), Method: PREINCUBATION
  mutagenic call: inactive; negative
[3]
  mutagenic call: inactive; negative
Test System: AMES SALMONELLA TYPHIMURIUM, Strain/Indicator: TA1535, Metabolic Activation: RAT, LIVER, S-9, AROCLOR 1254 (10%), Method: PREINCUBATION
  mutagenic call: inactive; negative
Test System: AMES SALMONELLA TYPHIMURIUM, Strain/Indicator: TA1537, Metabolic Activation: HAMSTER, LIVER, S-9, AROCLOR 1254 (10%), Method: PREINCUBATION
  mutagenic call: inactive; negative
[4]
  mutagenic call: inactive; negative
Test System: AMES SALMONELLA TYPHIMURIUM, Strain/Indicator: TA1537, Metabolic Activation: RAT, LIVER, S-9, AROCLOR 1254 (10%), Method: PREINCUBATION
  mutagenic call: inactive; negative

## c1cc2c3c(c1)=C1OC1C=3Cc1cc3ccccc3cc1-2 (stereo not given)
[5]
  mutagenic call: active; positive
[6]
  mutagenic call: active; positive

## NC1CCCC(N)C1 (stereo not given)
[1]
  mutagenic call: inactive; negative
Test System: AMES SALMONELLA TYPHIMURIUM, Strain/Indicator: TA98, Metabolic Activation: RAT, LIVER, S-9, PCB, Method: PREINCUBATION
  mutagenic call: inactive; negative
[2]
  mutagenic call: inactive; negative
Test System: AMES SALMONELLA TYPHIMURIUM, Strain/Indicator: TA100, Metabolic Activation: RAT, LIVER, S-9, PCB, Method: PREINCUBATION
  mutagenic call: inactive; negative

## Nc1ccc(C=O)cc1
[1]
  mutagenic call: inactive; negative
Test System: AMES SALMONELLA TYPHIMURIUM, Strain/Indicator: TA98, Metabolic Activation: RAT LIVER S-9, PHENOBARBITAL AND BETA-NAPHTHOFLAVONE (30%), Method: PREINCUBATION
  mutagenic call: inactive; negative
Test System: AMES SALMONELLA TYPHIMURIUM, Strain/Indicator: TA98, Metabolic Activation: RAT LIVER S-9, PHENOBARBITAL AND BETA-NAPHTHOFLAVONE, Method: PREINCUBATION
  mutagenic call: inactive; negative
[2]
  mutagenic call: inactive; negative
Test System: AMES SALMONELLA TYPHIMURIUM, Strain/Indicator: TA100, Metabolic Activation: RAT LIVER S-9, PHENOBARBITAL AND BETA-NAPHTHOFLAVONE (30%), Method: PREINCUBATION
  mutagenic call: inactive; negative
Test System: AMES SALMONELLA TYPHIMURIUM, Strain/Indicator: TA100, Metabolic Activation: RAT LIVER S-9, PHENOBARBITAL AND BETA-NAPHTHOFLAVONE, Method: PREINCUBATION
  mutagenic call: inactive; negative
[3]
  mutagenic call: inactive; negative
Test System: AMES SALMONELLA TYPHIMURIUM, Strain/Indicator: TA1535, Metabolic Activation: RAT LIVER S-9, PHENOBARBITAL AND BETA-NAPHTHOFLAVONE (30%), Method: PREINCUBATION
  mutagenic call: inactive; negative
Test System: AMES SALMONELLA TYPHIMURIUM, Strain/Indicator: TA1535, Metabolic Activation: RAT LIVER S-9, PHENOBARBITAL AND BETA-NAPHTHOFLAVONE, Method: PREINCUBATION
  mutagenic call: inactive; negative
[4]
  mutagenic call: inactive; negative
Test System: AMES SALMONELLA TYPHIMURIUM, Strain/Indicator: TA1537, Metabolic Activation: RAT LIVER S-9, PHENOBARBITAL AND BETA-NAPHTHOFLAVONE (30%), Method: PREINCUBATION
  mutagenic call: inactive; negative
Test System: AMES SALMONELLA TYPHIMURIUM, Strain/Indicator: TA1537, Metabolic Activation: RAT LIVER S-9, PHENOBARBITAL AND BETA-NAPHTHOFLAVONE, Method: PREINCUBATION
  mutagenic call: inactive; negative
Test System: E.COLI, Strain/Indicator: WP2UVRA, Metabolic Activation: NONE, Method: PREINCUBATION
  mutagenic call: inactive; negative
Test System: E.COLI, Strain/Indicator: WP2UVRA, Metabolic Activation: RAT LIVER S-9, PHENOBARBITAL AND BETA-NAPHTHOFLAVONE (30%), Method: PREINCUBATION
  mutagenic call: inactive; negative
Test System: E.COLI, Strain/Indicator: WP2UVRA, Metabolic Activation: RAT LIVER S-9, PHENOBARBITAL AND BETA-NAPHTHOFLAVONE, Method: PREINCUBATION
  mutagenic call: inactive; negative

## O=C(Nc1cc(Cl)cc(Cl)c1O)c1c(O)c(Cl)cc(Cl)c1Cl
[5]
  mutagenic call: inactive; negative
Test System: AMES SALMONELLA TYPHIMURIUM, Strain/Indicator: TA98, Metabolic Activation: RAT, LIVER, S-9, KANECHLOR 400, Method: STANDARD PLATE
  mutagenic call: inactive; negative
Test System: AMES SALMONELLA TYPHIMURIUM, Strain/Indicator: TA100, Metabolic Activation: NONE, Method: STANDARD PLATE
  mutagenic call: inactive; negative
Test System: AMES SALMONELLA TYPHIMURIUM, Strain/Indicator: TA100, Metabolic Activation: RAT, LIVER, S-9, KANECHLOR 400, Method: STANDARD PLATE
  mutagenic call: inactive; negative
Test System: AMES SALMONELLA TYPHIMURIUM, Strain/Indicator: TA1535, Metabolic Activation: NONE, Method: STANDARD PLATE
  mutagenic call: inactive; negative
Test System: AMES SALMONELLA TYPHIMURIUM, Strain/Indicator: TA1535, Metabolic Activation: RAT, LIVER, S-9, KANECHLOR 400, Method: STANDARD PLATE
  mutagenic call: inactive; negative
Test System: AMES SALMONELLA TYPHIMURIUM, Strain/Indicator: TA1537, Metabolic Activation: NONE, Method: STANDARD PLATE
  mutagenic call: inactive; negative
Test System: AMES SALMONELLA TYPHIMURIUM, Strain/Indicator: TA1537, Metabolic Activation: RAT, LIVER, S-9, KANECHLOR 400, Method: STANDARD PLATE
  mutagenic call: inactive; negative
Test System: AMES SALMONELLA TYPHIMURIUM, Strain/Indicator: TA1538, Metabolic Activation: NONE, Method: STANDARD PLATE
  mutagenic call: inactive; negative
Test System: AMES SALMONELLA TYPHIMURIUM, Strain/Indicator: TA1538, Metabolic Activation: RAT, LIVER, S-9, KANECHLOR 400, Method: STANDARD PLATE
  mutagenic call: inactive; negative

## NNc1ccn([C@@H]2C[C@H](O)[C@@H](CO)O2)c(=O)n1
Test System: CHINESE HAMSTER V-79, Strain/Indicator: V-79/6-THIOGUANINE, Metabolic Activation: NONE, Method: REPLATING
  mutagenic call: inactive; negative

## Cc1cc(N(C)C)ccc1N=Nc1ccccc1
Test System: AMES SALMONELLA TYPHIMURIUM, Strain/Indicator: TA98, Metabolic Activation: RAT, LIVER, MICROSOMES, 2-METHYL-4-DIMETHYLAMINOAZOBENZENE, Method: PREINCUBATION
  mutagenic call: inactive; negative
Test System: AMES SALMONELLA TYPHIMURIUM, Strain/Indicator: TA98, Metabolic Activation: RAT, LIVER, MICROSOMES, AROCLOR 1254, Method: PREINCUBATION
  mutagenic call: active; positive
Test System: AMES SALMONELLA TYPHIMURIUM, Strain/Indicator: TA98, Metabolic Activation: RAT, LIVER, MICROSOMES, Method: PREINCUBATION
  mutagenic call: inactive; negative
[6]
  mutagenic call: active; positive
Test System: AMES SALMONELLA TYPHIMURIUM, Strain/Indicator: TA98, Metabolic Activation: RAT, LIVER, S-9, KC500 OR PHENOBARBITAL, Method: LIQUID SUSPENSION
  mutagenic call: active; positive
Test System: AMES SALMONELLA TYPHIMURIUM, Strain/Indicator: TA100, Metabolic Activation: RAT, LIVER, S-9, AROCLOR 1254, Method: STANDARD PLATE
  mutagenic call: active; positive
Test System: AMES SALMONELLA TYPHIMURIUM, Strain/Indicator: TA100, Metabolic Activation: RAT, LIVER, S-9, KC500 OR PHENOBARBITAL, Method: LIQUID SUSPENSION
  mutagenic call: active; positive
Test System: UDS RODENT HEPATOCYTES, Strain/Indicator: THY INCORP (NON-S-PHASE), Method: AUTORADIOGRAPHY
  mutagenic call: active; positive

## O=C/C(CCl)=C(/Cl)C(=O)O
[1]
  mutagenic call: active; positive
[2]
  mutagenic call: active; positive
Test System: AMES SALMONELLA TYPHIMURIUM, Strain/Indicator: TA104, Metabolic Activation: NONE, Method: PREINCUBATION
  mutagenic call: active; positive
